Results: patent publication US20250122541A1, “ENZYMATIC AND CHEMICAL CATALYSIS FOR PRODUCTION FROM GLUCOSE OF THE PHARMACEUTICAL PRECURSOR, S-3-HYDROXY- Y -BUTYROLACTONE HBL” (The United States, as represented by the Secretary of …, priority 2023, published 2025)
“And” between values parts separate entries of the source, which are not always exact repeats. Identical values can stand only once.

How the values were obtained:
[1] = Partition coefficient of HBL extraction from aqueous solution into organic solvent (GC/FID); type: physicochemical
From the text: One potential application of HBL, which may have high value, is as a pharmaceutical precursor, which depends on its enantiomeric purity. To identify the chirality of the HBL produced by the above process, gas chromatography (GC) with flame ionization detection (FID) was applied using a MilliporeSigma® Supelco® ß-Dex 255 capillary GC column containing a chiral stationary phase of 2,3-diO-acetyl-6-0-TBDMS-ß-cyclodextrin. (MilliporeSigma and Supelco are registered trademarks of Merck KGaA of Darmstadt, Germany) This column successfully separated the enantiomers of HBL, although the retention times depended on the solvent in which the HBL was dissolved. Based on the reaction network from glucose to HBL, the chirality should be preserved at the C-5 position (FIG. 1). The reaction product solution was extracted with ethyl acetate, and the organic phase analyzed by GC/FID. […] The partition coefficient of HBL extraction into ethyl acetate was 0.1±0.02, and quantification of the HBL in the ethyl acetate coupled with this partition coefficient leads to an overall yield of HBL from glucose of 90%, which is limited by equilibrium, vide supra. HBL can also be extracted into THE, with a partition coefficient of 1.3±0.5, and propylene carbonate, with a partition coefficient of 0.5±0.1.

[2] = Half-life of BPP followed spectroscopically at 265 nm; type: physicochemical; settings: phosphate buffer (enzyme-free ultrafiltrate of the reaction), pH 6, 0.1 M phosphate, first-order decay, after removal of D1*D2D3 by ultrafiltration, read-out: half-life (t1/2)
Description: The synthesis and t1/2 of BPP was determined spectroscopically at 265 nm. The synthesis of BPP with D1*D2D3 sonicate and 10 mM glucosone in a 500 μL reaction was followed until the absorbance reached ˜1.4 (about 14 minutes). The reaction was then passed through a 3,000 MWCO Nanosep centrifugal filter (PALL Life Sciences) by centrifuging for 4 minutes at 14,000×g and 200 μL of filtrate followed at A265 every 4 s. The decay of A265 was normalized to the highest and lowest measured values, with the highest A265 set to 1 and the lowest to 0. To determine whether the t1/2 was 0th, 1st or 2nd order, the natural log of the data was plotted against time. After determining that the decay followed 1st-order decay, t1/2 was calculated using the Solver add-in for Microsoft Excel, minimizing the sum of squared differences between the measured and modeled data calculated using Equation 1.

half-life [2] [min] | SMILES | partition coefficient of HBL extraction into THF ([1]; THF (printed THE) / aqueous solution) | partition coefficient of HBL extraction into ethyl acetate ([1]; ethyl acetate / aqueous reaction product solution) | partition coefficient of HBL extraction into propylene carbonate ([1]; propylene carbonate / aqueous solution)
– | O=C1C[C@H](O)CO1 [HBL, (S)-3-hydroxy-γ-butyrolactone] | 1.3 and 1.3±0.5 | 0.1 and 0.1±0.02 | 0.5±0.1
3.7 | O=C1C(O)=C[C@@H](CO)OC1O (stereo partly shown) [BPP] | – | – | –
